The values below come from ChEMBL document CHEMBL3217452, “Design, synthesis, and structureactivity relationships of 1,3,4-oxadiazol-2(3H)-ones as novel FAAH inhibitors” (Medchemcomm, 2011).

pIC50: −log10 of the molar value.

Assay [1] relates to Mus musculus. Briefly: Inhibition of FAAH in mouse brain at 30 mg/kg, po after 1 hr. The format is functional. The settings on record: values are per cent of control.
Assay [2] relates to Mus musculus. Description: Inhibition of FAAH in mouse liver at 30 mg/kg, po after 1 hr. The settings on record: values are per cent of control. The format is functional.
Assay [3] deals with Mus musculus. Briefly: Inhibition of FAAH in mouse liver at 30 mg/kg, po after 24 hrs. The format is functional. The settings on record: values are per cent of control.
Assay [4] relates to Mus musculus. Description: Inhibition of FAAH in mouse brain at 30 mg/kg, po after 24 hrs. Format: functional. Conditions: values are per cent of control.
Assay [5] has as its system Mus musculus. Description: Inhibition of FAAH in mouse brain at 30 mg/kg, po after 8 hrs. The format is functional. Conditions: values are per cent of control.
Assay [6] relates to Mus musculus. Description: Inhibition of FAAH in mouse liver at 30 mg/kg, po after 8 hrs. The format is functional. The settings on record: values are per cent of control.
The subject of assay [7] is Mus musculus. Briefly: Inhibition of FAAH in mouse liver at 30 mg/kg, po after 4 hrs. The format is functional. The settings on record: values are per cent of control.
The test system of assay [8] is Mus musculus. Description: Inhibition of FAAH in mouse brain at 30 mg/kg, po after 4 hrs. The settings on record: values are per cent of control. Format: functional.
For assay [9], the system named is Mus musculus. Description: Inhibition of FAAH in mouse brain at 10 mg/kg, po after 8 hrs. The format is functional. The settings on record: values are per cent of control.
In assay [10] the test system is Mus musculus. Briefly: Inhibition of FAAH in mouse brain at 10 mg/kg, po after 24 hrs. The format is functional. The settings on record: values are per cent of control.
Assay [11] concerns Mus musculus. Briefly: Inhibition of FAAH in mouse liver at 10 mg/kg, po after 24 hrs. The settings on record: values are per cent of control. The format is functional.
Assay [12] has as its system Mus musculus. Briefly: Inhibition of FAAH in mouse liver at 10 mg/kg, po after 8 hrs. Format: functional. Conditions: values are per cent of control.
The test system of assay [13] is Mus musculus. Briefly: Inhibition of FAAH in mouse brain at 10 mg/kg, po after 1 hr. Conditions: values are per cent of control. The format is functional.
Assay [14] has as its system Mus musculus. Briefly: Inhibition of FAAH in mouse liver at 10 mg/kg, po after 1 hr. The format is functional. The settings on record: values are per cent of control.
The subject of assay [15] is Mus musculus. Briefly: Inhibition of FAAH in mouse liver at 10 mg/kg, po after 4 hrs. The format is functional. The settings on record: values are per cent of control.
In assay [16] the test system is Mus musculus. Briefly: Inhibition of FAAH in mouse brain at 10 mg/kg, po after 4 hrs. Format: functional. Conditions: values are per cent of control.
The target of assay [17] is T1, Fatty-acid amide hydrolase 1 (Rattus norvegicus) (UniProt P97612).
T1 sequence (whole entry): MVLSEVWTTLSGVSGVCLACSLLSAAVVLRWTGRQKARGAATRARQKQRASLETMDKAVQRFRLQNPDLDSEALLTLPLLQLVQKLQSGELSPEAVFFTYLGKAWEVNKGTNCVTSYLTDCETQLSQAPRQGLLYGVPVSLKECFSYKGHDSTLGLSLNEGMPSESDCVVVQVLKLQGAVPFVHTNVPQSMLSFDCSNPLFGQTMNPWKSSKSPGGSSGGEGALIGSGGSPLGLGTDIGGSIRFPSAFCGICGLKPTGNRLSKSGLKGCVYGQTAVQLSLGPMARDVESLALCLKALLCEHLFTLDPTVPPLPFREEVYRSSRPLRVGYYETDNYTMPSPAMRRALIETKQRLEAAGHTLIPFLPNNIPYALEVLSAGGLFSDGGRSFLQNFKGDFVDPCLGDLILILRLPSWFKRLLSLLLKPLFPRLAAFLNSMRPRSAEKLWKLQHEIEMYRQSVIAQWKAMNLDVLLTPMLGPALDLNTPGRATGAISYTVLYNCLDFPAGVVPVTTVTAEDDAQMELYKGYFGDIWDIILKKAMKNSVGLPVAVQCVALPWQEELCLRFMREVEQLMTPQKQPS
Description: Inhibition of FAAH in rat brain homogenates using [3H]-anandamide as substrate assessed as formation of [3H]-ethanolamine at 10 uM relative to control. The format is tissue-based. Conditions: values are per cent of control.

Assay [18] deals with T2, Fatty-acid amide hydrolase 1 (Homo sapiens, UniProt O00519).
T2 sequence (O00519 whole entry): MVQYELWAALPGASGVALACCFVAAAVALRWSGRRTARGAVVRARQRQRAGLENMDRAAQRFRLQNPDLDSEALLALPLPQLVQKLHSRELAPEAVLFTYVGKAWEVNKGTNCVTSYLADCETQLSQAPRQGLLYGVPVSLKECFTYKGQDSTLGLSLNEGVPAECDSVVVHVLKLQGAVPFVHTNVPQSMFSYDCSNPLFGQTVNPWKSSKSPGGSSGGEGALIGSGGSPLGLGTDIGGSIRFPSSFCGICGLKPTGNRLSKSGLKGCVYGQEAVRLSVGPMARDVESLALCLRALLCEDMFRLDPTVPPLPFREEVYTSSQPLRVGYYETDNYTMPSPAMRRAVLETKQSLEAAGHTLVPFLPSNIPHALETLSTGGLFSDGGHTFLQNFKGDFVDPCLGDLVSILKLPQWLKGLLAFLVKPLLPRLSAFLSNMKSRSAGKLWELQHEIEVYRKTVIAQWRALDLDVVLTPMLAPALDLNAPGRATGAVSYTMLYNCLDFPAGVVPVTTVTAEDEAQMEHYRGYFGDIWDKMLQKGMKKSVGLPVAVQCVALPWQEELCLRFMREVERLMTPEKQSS
Briefly: Inhibition of FAAH (unknown origin).

As a reminder, the residual activity is the signal under treatment as a percentage of the control signal. For `O=c1oc(Oc2ccc(F)cc2)nn1-c1ccc(O)cc1`, the residual activity at 30 mg/kg amounted to 82% in assay [1] and 30% in assay [2].
`O=c1oc(Oc2ccc(Cl)cc2Cl)nn1-c1ccc(O)cc1`: the residual activity at 30 mg/kg in assay [1] was determined as 59%; in [3], 103%; in assay [2], 9%; in assay [4], 99%; in [5] it was 52%; in assay [6], 11%. Moreover, the residual activity at 30 mg/kg turned out to be 18% in [7] and 72% in assay [8].
Take `O=c1oc(Oc2ccc(F)cc2F)nn1-c1ccc(O)c(O)c1`: the residual activity at 10 mg/kg in assay [9] was 103%; in assay [10] it was 104%; in assay [11], 79%; in assay [12], 27%; in [13], 102%; in assay [14], 6%. In addition, the figures for the residual activity at 10 mg/kg in assay [15] and in [16] were 18% and 100%, respectively. In addition, the results for the residual activity at 30 mg/kg in assay [1] and in assay [2] were 66% and 4%, respectively.
As for `O=c1oc(Oc2ccc(F)cc2F)nn1-c1cccc(O)c1`, the residual activity at 30 mg/kg in assay [1] turned out to be 94%; in assay [2], 12%.
Take `O=c1oc(Oc2ccc(Cl)cc2)nn1-c1ccc(O)cc1F`: the residual activity at 30 mg/kg was determined as 64% in assay [1]; 79% in assay [3]; 4% in assay [2]; 80% in assay [4]; 57% in assay [5]; 7% in [6]. In assay [8], the residual activity at 30 mg/kg turned out to be 34%.
Take `COc1nn(-c2cccc(Cl)c2)c(=O)o1`: the residual activity in [17] amounted to 5%.
As to `O=c1oc(Oc2ccc(F)cc2F)nn1-c1ccc(O)cc1`, the residual activity at 30 mg/kg worked out at 86% in assay [1] and 12% in assay [2].
In the case of `O=c1oc(OCc2ccccc2)nn1Cc1ccccc1`, the residual activity in assay [17] is 86%.
Regarding `O=c1oc(Oc2ccc([N+](=O)[O-])cc2)nn1-c1ccc(O)cc1`, the residual activity at 30 mg/kg in [1] came to 96%; in [2], 45%.
As to `O=c1oc(Oc2ccccc2)nn1-c1ccccc1F`, the residual activity at 30 mg/kg in assay [2] worked out at 72%.
For `O=c1oc(Oc2ccccc2)nn1-c1cccc(O)c1`, the residual activity at 30 mg/kg in assay [1] was determined as 95%; in assay [2], 33%.
In the case of `O=c1oc(Oc2ccc(Cl)cc2)nn1-c1ccccc1`, the residual activity at 30 mg/kg was 110% in [1] and 81% in assay [2].
As a reminder, the pIC50 is the negative decadic logarithm of the IC50, by convention in mol/L. Lower therefore signals a large IC50. Regarding `COc1nn(-c2ccc(Oc3ccccc3)cc2)c(=O)o1`, in assay [18], the pIC50 is 8.21.
Regarding `O=C(c1ccccc1)c1nn(-c2ccccc2)c(=O)o1`, in assay [17], the residual activity stood at 84%.
Turning to `O=c1oc(Oc2ccccc2)nn1-c1ccc(O)cc1`, the values for the residual activity at 30 mg/kg in assay [1] and in assay [2] were 97% and 46%, respectively.
With `O=c1oc(-c2ccccc2)nn1-c1ccccc1`, in [17], the residual activity is 110%.
As to `O=c1oc(N2CCOCC2)nn1-c1cccc(Cl)c1`, the residual activity in [17] was 104%.
For `COc1ccc(Oc2nn(-c3ccccc3)c(=O)o2)cc1`, the figures for the residual activity at 30 mg/kg in assay [1] and in assay [2] were 108% and 94%, respectively.
The like results for `O=c1oc(Oc2ccc(Cl)cc2)nn1-c1ccc(O)cc1` were, in that order, 38% and 20%.
For `O=c1oc(Oc2ccccc2)nn1-c1ccc(F)cc1F`, the residual activity at 30 mg/kg in assay [1] amounted to 86%; in assay [2], 65%.
Consider `O=c1oc(Oc2ccc(Cl)cc2)nn1-c1cccc(O)c1`, for which the residual activity at 30 mg/kg came out at 100% in assay [1] and 10% in assay [2].
For `O=c1oc(Oc2ccccc2F)nn1-c1ccc(O)cc1`, in that order: 94% and 44%.
As to `O=c1oc(Oc2ccc(Cl)cc2)nn1-c1ccc(O)c(O)c1`, the residual activity at 10 mg/kg in assay [9] was determined as 96%; in assay [10], 102%; in [11] it was 91%; in assay [12], 38%; in [13], 99%; in assay [14] it was 10%. Also, the residual activity at 10 mg/kg was 17% in assay [15] and 90% in assay [16]. The residual activity at 30 mg/kg in assay [1] came out at 83%; in assay [2], 5%.
As to `O=c1oc(Cc2ccccc2)nn1-c1ccccc1`, the residual activity in assay [17] was found to be 97%.
Regarding `O=c1oc(Oc2ccc(F)cc2F)nn1-c1ccccc1`, the residual activity at 30 mg/kg in [1] came to 94%; in assay [2] it was 39%.
For `O=c1oc(Oc2ccc(F)cc2)nn1-c1cccc(O)c1`, in that order: 99% and 24%.
Take `COc1cc(Br)ccc1Oc1nn(-c2ccccc2)c(=O)o1`: the residual activity at 30 mg/kg in assay [1] came to 101%; in assay [2], 83%.
